Marks after values point to notes of the source that are not given here.
Key:
Type in all cases: in vivo
Conditions in all cases: 100 = 100% disease control
Alternaria solani = assay: Test D: tomato early blight, sprayed the day before inoculation, visual disease rating
Method in brief: (§1)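 Ratings reflect a 200 ppm spray (≈500 g/ha) unless marked as 40 ppm. Plants were sprayed to run-off. The spray suspension was acetone/purified water 50/50 containing 250 ppm Trem 014, after first dissolving compound in acetone at 3% of final volume.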

[1] = tested on: Puccinia recondita f. sp. tritici; assay: Test I: wheat leaf rust on wheat seedlings, sprayed the day before inoculation, visual disease rating
Method in brief: as §1

Septoria nodorum = assay: Test F: wheat glume blotch on wheat seedlings, sprayed the day before inoculation, visual disease rating
Method in brief: as §1

[2] = tested on: Erysiphe graminis f. sp. tritici; assay: Test J: wheat powdery mildew on wheat seedlings, sprayed the day before inoculation, visual disease rating
Method in brief: as §1

Botrytis cinerea = assay: Test C: tomato Botrytis on tomato seedlings, sprayed the day before inoculation, visual disease rating
Method in brief: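 Disease scored by eye on tomato seedlings inoculated with Botrytis cinerea a day after treatment. Treatment was a run-off spray at 200 ppm (equivalent to 500 g/ha), or 40 ppm where marked, in acetone/water carrying 250 ppm Trem 014.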

Septoria tritici = assay: Test G: wheat leaf blotch on wheat seedlings, sprayed the day before inoculation, visual disease rating
Method in brief: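 Visual disease ratings taken 19 days after transfer to a 20° C growth chamber, following 48 h in saturated atmosphere at 24° C. Seedlings had been sprayed to run-off one day before spore inoculation. Dose 200 ppm, or 40 ppm where starred.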

[3] = 200 ppm, 0 = no control relative to controls
[4] = 40 ppm (marked *), 0 = no control

| SMILES | Test D disease control rating (Alternaria solani; [3]) [%] | Test I disease control rating [1, 3] [%] | Test F disease control rating (Septoria nodorum; [3]) [%] | Test J disease control rating [2, 3] [%] | Test C disease control rating (Botrytis cinerea; [3]) [%] | Test G disease control rating (Septoria tritici; [3]) [%] | Test D disease control rating (Alternaria solani; 200 ppm, 0 = no control) [%] | Test I disease control rating ([1]; 200 ppm, 0 = no control) [%] | Test F disease control rating (Septoria nodorum; 200 ppm, 0 = no control) [%] | Test J disease control rating ([2]; 200 ppm, 0 = no control) [%] | Test C disease control rating (Botrytis cinerea; 200 ppm, 0 = no control) [%] | Test G disease control rating (Septoria tritici; 200 ppm, 0 = no control) [%] | other results |
| --- | --- | --- | --- | --- | --- | --- | --- | --- | --- | --- | --- | --- | --- |
| COc1cc(Cl)cc(F)c1-c1c(Cl)ncn1-c1ccc(Cl)cc1 [compound 133] | 0 | 0 | 0 | 0 | 0 | 0 |  |  |  |  |  |  |  |
| Cc1ccc(-n2c(Cl)nc(Cl)c2-c2c(F)ccc(F)c2F)cc1 [compound 130] | 100 | 99 | 0 | 96 | 98 | 85 |  |  |  |  |  |  |  |
| COc1ccc(Cn2cnc(Cl)c2-c2c(F)cccc2F)cc1 [compound 194] |  |  |  |  |  |  | 95 | 100 | 73 | 96 | 99 | 97 |  |
| C=Cc1nc(C)n(-c2ccc(Cl)cc2)c1-c1c(F)cccc1F [compound 217] |  |  |  |  |  |  |  |  |  |  |  |  | Test D disease control rating (Alternaria solani; [4]): 57* %; Test I disease control rating [1, 4]: 0* %; Test F disease control rating (Septoria nodorum; [4]): 0* %; Test J disease control rating [2, 4]: 0* %; Test C disease control rating (Botrytis cinerea; [4]): 33* %; Test G disease control rating (Septoria tritici; [4]): 13* % |
| COc1cc(F)c(-c2c(Cl)nc(Br)n2-c2ccc(C)cc2)c(F)c1 [compound 148] |  |  |  |  |  |  | 100 | 100 | 99 | 100 | 99 | 100 |  |
| Fc1ccc(SCCl)c(F)c1-c1c(Cl)ncn1-c1ccc(Cl)cc1 [compound 232] |  |  |  |  |  |  | 0 | 9 | 0 | 0 | 0 | 95 |  |
| Cc1nn(C)c(-c2c(Cl)cccc2Cl)c1-c1ccc(Cl)c(F)c1 [compound 89] | 0 | 85 | 0 | 98 | 0 | 3 |  |  |  |  |  |  |  |
| Fc1cc(F)c(-n2cnc(Br)c2-c2ccc(Cl)cc2)c(F)c1 [compound 212] |  |  |  |  |  |  |  |  |  |  |  |  | Test D disease control rating (Alternaria solani; [4]): 20* %; Test I disease control rating [1, 4]: 0* %; Test F disease control rating (Septoria nodorum; [4]): 0* %; Test J disease control rating [2, 4]: 0* %; Test C disease control rating (Botrytis cinerea; [4]): 40* %; Test G disease control rating (Septoria tritici; [4]): 0* % |
| Fc1cccc(F)c1-c1c(Cl)nc(Br)n1-c1cccc(Cl)c1 [compound 221] |  |  |  |  |  |  | 99 | 97 | 0 | 98 | 99 | 95 |  |
| Fc1ccc(-n2c(Br)nc(Cl)c2-c2c(F)cccc2Cl)cc1 [compound 185] |  |  |  |  |  |  | 100 | 100 | 78 | 99 | 99 | 94 |  |
| Cc1nn(C)c(-c2c(F)cc(F)cc2F)c1-c1cccc(F)c1 [compound 70] | 0 | 0 | 0 | 0 | 71 | 0 |  |  |  |  |  |  |  |
| Fc1cccc(F)c1-n1cnc(Cl)c1-c1ccc(Cl)cc1 [compound 163] |  |  |  |  |  |  |  |  |  |  |  |  | Test D disease control rating (Alternaria solani; [4]): 0* %; Test I disease control rating [1, 4]: 0* %; Test F disease control rating (Septoria nodorum; [4]): 0* %; Test J disease control rating [2, 4]: 0* %; Test C disease control rating (Botrytis cinerea; [4]): 0* %; Test G disease control rating (Septoria tritici; [4]): 10* % |
| Fc1cccc(F)c1-c1c(Cl)nc(Cl)n1-c1cccc(Cl)c1 [compound 222] |  |  |  |  |  |  | 99 | 97 | 0 | 98 | 99 | 99 |  |
